Experimental data from patent US20240279215A1 (Cytokinetics, Incorporated, priority 2022, published 2024).
Where “and” joins values, the source holds several entries; their conditions need not be identical. Equal values may be shown once. Read-outs that look alike come from different tables or passages of the source.

Legend:
[1] = Plasma protein binding (PPB), mouse; format: in vitro ADME
[2] = Brain exposure assay in mice (brain-to-plasma ratio after oral administration); format: in vivo; conditions: mouse, 100 mg/kg; for concentration at 6 h / Kp at 2 h / Kp uu at 2 h / Kp at 6 h / Kp uu at 6 h: male, C57BL/6JNIFDC, oral; for Kp at 2 h / Kp at 6 h: total brain-plasma concentration ratio; for Kp uu at 2 h / Kp uu at 6 h: unbound brain-to-plasma partition coefficient; for Kp at 2 h / Kp uu at 2 h / Cbrain, free (μM) / Cbrain, total (μM) / Cplasma, free (μM) / Cplasma, total (μM): 2 hr
Procedure: This protocol was used to determine the brain-to-plasma ratio in vivo in mice post oral administration of test compounds. Mice (C57BL/6JNIFDC, male, non-fasted, 18-30 g body weight, 3 mice for each timepoint) were dosed orally at 100 mg/kg (10 mg test compound/mL formulation, 10 mL dosing volume/kg) with plasma and brain tissues obtained at 2- and 6-hours post-administration. The oral dosing formulation composition used was 10% N,N-dimethylacetamide:20% propylene glycol:70% of 40% aqueous 2-hydroxypropyl-β-cyclodextrin.
For the isolation of mouse plasma from dosed animals, approximately 0.3 mL blood was collected by orbital sinus bleed and centrifuged (4000 g, 5 minutes, 4° C.). The plasma samples were stored frozen at −75±15° C. until further processing.
For the isolation of brain tissue from dosed animals, whole brain tissues were collected from euthanized and fully exsanguinated mice. The tissues were quickly rinsed with distilled water, dried with absorbent paper, followed by rapid freezing on dry ice and then storage at −75±15° C. until further processing. Brain tissue samples obtained from frozen whole brain were weighed and the samples homogenized using three equivalents of distilled water (3 mL per gram of brain tissue).
Standard and quality control samples were prepared by adding 3 μL of the test compound dimethyl sulfoxide (DMSO) stock solutions to blank plasma (30 μL) and blank brain homogenate aliquots (30 μL). Standard curves for brain and plasma were generated over a 1 to 1,000 ng/g test compound concentration range. For the extraction of test compound from plasma and brain tissue homogenate samples, a solution of acetonitrile containing internal standard ([…]) was added to 30 μL of samples with added 3 μL of DMSO. The samples then were vortex-mixed followed by centrifugation at 4000 rpm (4° C., 15 minutes). The resultant supernatants were diluted 5-fold with distilled water. Finally, 10 μL of the diluted supernatant was injected onto an LC-MS/MS instrument for quantitative analysis of test compound.
The brain-to-plasma ratio was calculated by the relationship: Brain-to-plasma ratio=Cbrain/Cplasma; where Cb is the concentration in brain tissue and Cp is the concentration in plasma at the corresponding timepoint.
Kp is the total brain-plasma concentration ratio; Kp=Cbrain/Cplasma.
Kp, uu is the unbound brain-to-plasma partition coefficient (Kp,uu,brain). It is a measure of the extent of the distribution equilibrium of a compound between the unbound (free) fractions in brain and in blood plasma; Kp, uu brain=Cu, brain/Cu, plasma.

[3] = Brain tissue binding, mouse; format: in vitro ADME
human NAMPT = human NAMPT (Homo sapiens (Human), UniProt P43490); test: NMN fluorescence biochemical assay (human recombinant NAMPT enzyme assay)
Outline: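 NMN formed was detected by fluorescence (Ex/Em 355/460 nm) after acetophenone, KOH and formic acid derivatization. The cell-free reaction ran 60 min at ambient temperature with 6 nM human NAMPT, 150 μM nicotinamide, 20 μM PRPP, 2.5 mM ATP, pH 7.2 HEPES, and compound dose responses.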

P-gp (MDR1) [4] = test: MDR1-MDCK bidirectional permeability assay; conditions: dog, MDCK-MDR1, pH 7.4, Efflux ratio
Procedure: (§1) A bidirectional permeability assay using Madin Darby canine kidney cells expressing multi-drug resistance gene 1 (MDCK-MDR1) is routinely used to evaluate discovery compounds' BBB permeability and drug efflux toward the advancement of discovery compounds with brain penetration.
(§2) MDCK-MDR1 Cells (NIH cell line) were obtained from the National Institutes of Health. […] Cell culture medium was replaced every other day, beginning no later than 24 hours after the initial plating. […] The dosing solution concentration was 1 μM for the test article in the assay buffer. Cell monolayers were dosed on the apical side (A-to-B) or basolateral side (B-to-A) and incubated at 37° C. under an atmosphere of 5% CO2 in a humidified incubator. Samples were taken from the donor and receiver chambers at 120 minutes. Each determination was performed in duplicate. After the 120 min transport period, the flux of lucifer yellow was also measured for each monolayer to ensure no damage was inflicted to the cell monolayers during the transport period. All samples were assayed by LC-MS/MS (Waters XSelect HSS T3 C18, 2.5 m, 2.1×50 mm) using electrospray ionization with 0.1% formic acid in water (mobile phase A) and 0.1% formic acid in acetonitrile (mobile phase B) as mobile phases. The apparent permeability coefficient (Papp), in units of cm per second, was calculated for MDCK-MDR1 Cells (NIH cell line) drug transport assays using the following equation:
(§3) Where VA is the volume (in mL) in the acceptor well, Area is the surface area of the membrane (0.143 cm^2 for Transwell-96 Well Permeable Supports), and time is the total transport time in seconds.
(§4) The leakage of Lucifer Yellow (LY), in unit of percentage (%), can be calculated using the following equation:
(§5) LY leakage of <1% is acceptable to indicate the well-qualified MDCK-MDR1(NIH) monolayer.

[5] = test system: MDCK-MDR1 cells (P-gp, MDR1); test: MDR1-MDCK bidirectional permeability assay; conditions: A to B
Procedure: as §1, §2, §3, §4, §5

P-gp (MDR1) [6] = test: in vitro; conditions: dog, MDCK-MDR1, pH 7.4, Efflux ratio
Procedure: as §1, §2, §3, §4, §5

[7] = test system: MDCK-MDR1 cells (P-gp, MDR1); conditions: dog, MDCK-MDR1, 120 min, 1 μM, pH 7.4
Procedure: as §1, §2, §3, §4, §5

[8] = plasma, read-out: Cplasma, free
[9] = plasma, read-out: Cplasma, total

Chain of human NAMPT (P43490 whole entry): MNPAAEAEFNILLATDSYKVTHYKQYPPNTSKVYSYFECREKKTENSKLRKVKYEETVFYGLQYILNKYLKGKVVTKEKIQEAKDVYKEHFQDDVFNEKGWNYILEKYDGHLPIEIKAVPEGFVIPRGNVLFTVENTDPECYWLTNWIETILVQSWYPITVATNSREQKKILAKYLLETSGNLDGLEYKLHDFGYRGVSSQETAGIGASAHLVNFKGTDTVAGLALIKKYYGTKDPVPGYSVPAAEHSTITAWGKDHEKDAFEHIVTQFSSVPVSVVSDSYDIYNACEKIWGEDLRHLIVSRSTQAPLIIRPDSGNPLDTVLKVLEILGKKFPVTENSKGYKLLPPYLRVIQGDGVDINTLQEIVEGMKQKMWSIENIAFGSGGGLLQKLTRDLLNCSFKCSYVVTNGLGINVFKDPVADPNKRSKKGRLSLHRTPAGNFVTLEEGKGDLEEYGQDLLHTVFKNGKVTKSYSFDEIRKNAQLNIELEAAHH

SMILES	fraction unbound ([1]; mouse, plasma)	fraction unbound ([3]; mouse, brain tissue)	efflux ratio at 120 min, 1 μM (P-gp (MDR1) [4])	PappAB [5]	concentration at 6 h ([2]; brain, read-out: Cbrain, free) [nM]	concentration at 6 h ([2]; brain, read-out: Cbrain, total) [nM]	concentration at 6 h [2, 8] [nM]	concentration at 6 h [2, 9] [nM]	Kp at 2 h [2]	Kp uu at 2 h [2]	Kp at 6 h [2]	Kp uu at 6 h [2]	Cbrain, free (μM) [2]	Cbrain, total (μM) [2]	Cplasma, free (μM) [2]	Cplasma, total (μM) [2]	AC1.4 Human (human NAMPT) [µM]	EC50 (human NAMPT) [µM]	further results
O=C(Nc1ccc(CC2CC3CCC(C2)N3S(=O)(=O)C2CC2)cc1)OCc1cnco1 (centres unmarked) [Compound 395, oxazol-5-ylmethyl (4-((8-(cyclopropylsulfonyl)-8-azabicyclo[3.2.1]octan-3-yl)methyl)phenyl)carbamate]	–	–	–	–	–	–	–	–	–	–	–	–	–	–	–	–	0.12	3.2	efflux ratio at 120 min, 1 μM (P-gp (MDR1) [6]): 5.02; PappAB [7]: 2.81
CN(C)C(=O)N1CCC[C@H](c2ccc(NC(=O)OCc3cnco3)cc2)C1 [Compound 376, oxazol-5-ylmethyl (R)-(4-(1-(dimethylcarbamoyl)piperidin-3-yl)phenyl)carbamate]	0.024	0.132	4.11	8.06	1000	7500	1090	45500	0.16	0.89	0.16	0.92	2.2, μM	16.5, μM	2.48, μM	104, μM	0.06	2.02	–
CN(C)S(=O)(=O)N1CC2(CC(Cc3ccc(NC(=O)OCc4cnco4)cc3F)C2)C1 [Compound 399, oxazol-5-ylmethyl (4-((2-(N,N-dimethylsulfamoyl)-2-azaspiro[3.3]heptan-6-yl)methyl)-3-fluorophenyl)carbamate]	–	–	–	–	140	11500	270	26800	0.44	0.52	0.43	0.52	0.23, μM	19.5, μM	0.44, μM	44, μM	0.15	3.88	fraction unbound [1]: 0.01; fraction unbound [3]: 0.012
CN(C)C(=O)N1CC2(CC(c3ccc(NC(=O)OCc4cnco4)cc3F)C2)C1 [Compound 400, oxazol-5-ylmethyl (4-(2-(dimethylcarbamoyl)-2-azaspiro[3.3]heptan-6-yl)-3-fluorophenyl)carbamate]	–	–	–	–	80	1400	140	3100	0.43	0.53	0.43	0.57	0.31, μM	5.8, μM	0.58, μM	13.5, μM	0.11	15.4	fraction unbound [1]: 0.043; fraction unbound [3]: 0.054

Second part, led by results:

fraction unbound ([1]; mouse, plasma)	fraction unbound ([3]; mouse, brain tissue)	efflux ratio at 120 min, 1 μM (P-gp (MDR1) [4])	PappAB [5]	SMILES	concentration at 6 h ([2]; brain, read-out: Cbrain, free) [nM]	concentration at 6 h ([2]; brain, read-out: Cbrain, total) [nM]	concentration at 6 h [2, 8] [nM]	concentration at 6 h [2, 9] [nM]	Kp at 2 h [2]	Kp uu at 2 h [2]	Kp at 6 h [2]	Kp uu at 6 h [2]	Cbrain, free (μM) [2]	Cbrain, total (μM) [2]	Cplasma, free (μM) [2]	Cplasma, total (μM) [2]	AC1.4 Human (human NAMPT) [µM]	EC50 (human NAMPT) [µM]	further results
0.037	0.053	1.99	7.68	CN(C)S(=O)(=O)N1CCC(Cc2ccc(NC(=O)OCc3cnco3)cc2)CC1 [Compound 27, oxazol-5-ylmethyl (4-((1-(N,N-dimethylsulfamoyl)piperidin-4-yl)methyl)phenyl)carbamate]	70	1500	220	5900	0.29	0.41	0.25	0.32	0.64, μM	12.0, μM	1.55, μM	42.1, μM	0.36	5.25	–
0.022	0.033	5.74	3.53	CN(C)C(=O)N1CCC(Cc2ccc(NC(=O)OCc3cnco3)cc2F)CC1 [Compound 449, oxazol-5-ylmethyl (4-((1-(dimethylcarbamoyl)piperidin-4-yl)methyl)-3-fluorophenyl)carbamate]	280	8400	390	18000	0.42	0.64	0.47	0.72	0.83, μM	25.0, μM	1.30, μM	59.4, μM	0.10	2.93	–
–	–	0.92	5.39 and 5.4	O=C(Nc1ccc(CC2CCN(C3COC3)CC2)cc1)OCc1ccc(Cl)cc1 [Compound 43, 4-chlorobenzyl (4-((1-(oxetan-3-yl)piperidin-4-yl)methyl)phenyl)carbamate]	–	–	–	–	–	–	–	–	–	–	–	–	0.45	4.56	–
–	–	3.32	5.57	CN(C)C(=O)N1CCC(CCc2ccc(NC(=O)OCc3cnco3)cc2)CC1 [Compound 32, oxazol-5-ylmethyl (4-(2-(1-(dimethylcarbamoyl)piperidin-4-yl)ethyl)phenyl)carbamate]	–	–	–	–	–	–	–	–	–	–	–	–	0.38	21	–
